Reference: patent publication US20260125382A1, “COMPOUNDS FOR INHIBITING OR DEGRADING CDK2 AND/OR CDK9 AND MEDICINAL USE THEREOF” (KOREA RESEARCH INSTITUTE OF CHEMICAL TECHNOLOGY, priority 2022, published 2026)

How the values were obtained:
CDK9 = target: T1, CDK9 (Homo sapiens, UniProt P50750); assay: CDK protein degradation activity (Western blotting), CDK9; type: cell-based; settings: MDA-MB-231 cells, 16 hours, Western blot
T1 construct: endogenous in cells; host or cells: MDA-MB-231
Outline: (§1)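 Protein levels were read by Western blot densitometry, tubulin serving as loading reference. Beforehand, MDA-MB-231 cells had been exposed for 16 hours to 100 nM, 1 μM or 10 μM compound, DMSO as control.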

CDK2 = target: T2, CDK2 (Homo sapiens, UniProt P24941); assay: CDK protein degradation activity (Western blotting), CDK2; type: cell-based; settings: MDA-MB-231 cells, 16 hours, Western blot
T2 construct: endogenous in cells; host or cells: MDA-MB-231
Outline: as §1

T1 sequence (P50750 whole entry): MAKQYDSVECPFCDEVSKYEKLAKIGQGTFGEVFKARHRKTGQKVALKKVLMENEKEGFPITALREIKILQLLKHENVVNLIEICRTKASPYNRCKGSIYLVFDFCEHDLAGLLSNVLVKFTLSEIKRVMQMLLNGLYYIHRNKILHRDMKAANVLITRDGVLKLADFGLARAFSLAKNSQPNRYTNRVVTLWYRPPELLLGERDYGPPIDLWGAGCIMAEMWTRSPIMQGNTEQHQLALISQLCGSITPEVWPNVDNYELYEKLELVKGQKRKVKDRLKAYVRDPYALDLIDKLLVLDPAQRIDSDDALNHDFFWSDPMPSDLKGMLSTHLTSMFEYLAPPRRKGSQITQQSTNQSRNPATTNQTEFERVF

| Compound | Enzyme degradation CDK9 (% remaining) @ 0.1 μM (CDK9) | Enzyme degradation CDK9 (% remaining) @ 1 μM (CDK9) | Enzyme degradation CDK9 (% remaining) @ 10 μM (CDK9) | Enzyme degradation CDK2 (% remaining) @ 0.1 μM (CDK2) | Enzyme degradation CDK2 (% remaining) @ 1 μM (CDK2) | Enzyme degradation CDK2 (% remaining) @ 10 μM (CDK2) |
| --- | --- | --- | --- | --- | --- | --- |
| O=C1CC[C@H](N2C(=O)c3ccc(N4CCC(C(=O)N5CCC(CCN6CCN(c7ccc(Nc8ncnc9c8ncn9C8CC(NC(=O)c9c(Cl)cccc9Cl)C8)cc7)CC6)CC5)CC4)cc3C2=O)C(=O)N1 (stereo partly drawn) [Compound 413, 2,6-dichloro-N-((1s,3s)-3-(6-((4-(4-(2-(1-(1-(2-(2,6-dioxopiperidin-3-yl)-1,3-dioxoisoindolin-5-yl)piperidin-4-carbonyl)piperidin-4-yl)ethyl)piperazin-1-yl)phenyl)amino)-9H-purin-9-yl)cyclobutyl)benzamide] | 10/10/10% | 10/10/10% | 10/10/10% | 30% | 20% | 20% |
| N#Cc1cccc(C(=O)N[C@H]2C[C@@H](n3cnc4c(Nc5ccc(N6CCN(CC7CCN(c8cc9c(cc8F)C(=O)N(C8CCC(=O)NC8=O)C9=O)CC7)CC6)cc5)ncnc43)C2)n1 (stereo partly drawn) [Compound 414, 6-cyano-N-((1s,3s)-3-(6-((4-(4-((1-(2-(2,6-dioxopiperidin-3-yl)-6-fluoro-1,3-dioxoisoindolin-5-yl)piperidin-4-yl)methyl)piperazin-1-yl)phenyl)amino)-9H-purin-9-yl)cyclobutyl)picolinamide] | 10/10/10% | 10/10/10% | 10/10/10% | 20/20/20% | 20/20/20% | 20/20/20% |
| O=C1CC[C@H](N2C(=O)c3cc(F)c(N4CCC(CN5CCN(c6ccc(Nc7ncnc8c7ncn8C7CC(NC(=O)c8cccc(C(F)(F)F)n8)C7)cc6)CC5)CC4)cc3C2=O)C(=O)N1 (stereo partly drawn) [Compound 415, N-((1s,3s)-3-(6-((4-(4-((1-(2-(2,6-dioxopiperidin-3-yl)-6-fluoro-1,3-dioxoisoindolin-5-yl)piperidin-4-yl)methyl)piperazin-1-yl)phenyl)amino)-9H-purin-9-yl)cyclobutyl)-6-(trifluoromethyl)picolinamide] | 10/10/10% | 10/10/10% | 10/10/10% | 20/20/20% | 20/20/20% | 20/20/20% |
| O=C1CC[C@H](N2C(=O)c3cc(F)c(N4CCC(CN5CCN(c6ccc(Nc7ncnc8c7ncn8[C@H]7C[C@@H](NC(=O)c8cccc(Cl)n8)C7)cc6)CC5)CC4)cc3C2=O)C(=O)N1 [Compound 416, 6-chloro-N-((1s,3s)-3-(6-((4-(4-((1-(2-(2,6-dioxopiperidin-3-yl)-6-fluoro-1,3-dioxoisoindolin-5-yl)piperidin-4-yl)methyl)piperazin-1-yl)phenyl)amino)-9H-purin-9-yl)cyclobutyl)picolinamide] | 10/10/10% | 10/10/10% | 10/10/10% | 20% | 10% | 10% |
| O=C1CC[C@H](n2nnc3ccc(N4CCC(CN5CCN(c6ccc(Nc7ncnc8c7ncn8C7CC(NC(=O)c8cccc(Cl)n8)C7)cc6)CC5)CC4)cc3c2=O)C(=O)N1 (stereo partly drawn) [Compound 417, 6-chloro-N-((1s,3s)-3-(6-((4-(4-((1-(3-(2,6-dioxopiperidin-3-yl)-4-oxo-3,4-dihydrobenzo[d][1,2,3]triazin-6-yl)piperidin-4-yl)methyl)piperazin-1-yl)phenyl)amino)-9H-purin-9-yl)cyclobutyl)picolinamide] | 10/10/10% | 10/10/10% | 10/10/10% | 10% | 0% | 0% |
| O=C1CC[C@H](N2C(=O)c3cccc(NCC(=O)N4CCC(CN5CCN(c6ccc(Nc7ncnc8c7ncn8C7CC(NC(=O)c8cccc(Cl)n8)C7)cc6)CC5)CC4)c3C2=O)C(=O)N1 (stereo partly drawn) [Compound 419, 6-chloro-N-((1s,3s)-3-(6-((4-(4-((1-((2-(2,6-dioxopiperidin-3-yl)-1,3-dioxoisoindolin-4-yl)glycyl)piperidin-4-yl)methyl)piperazin-1-yl)phenyl)amino)-9H-purin-9-yl)cyclobutyl)picolinamide] | 0/0/0% | 0/0/0% | 0/0/0% | 10/10/10% | 10/10/10% | 10/10/10% |
| N#Cc1cccc(C(=O)N[C@H]2C[C@@H](n3cnc4c(Nc5ccc(N6CCN(CC7CCN(C(=O)CNc8cccc9c8C(=O)N(C8CCC(=O)NC8=O)C9=O)CC7)CC6)cc5)ncnc43)C2)n1 (stereo partly drawn) [Compound 420, 6-cyano-N-((1s,3s)-3-(6-((4-(4-((1-((2-(2,6-dioxopiperidin-3-yl)-1,3-dioxoisoindolin-4-yl)glycyl)piperidin-4-yl)methyl)piperazin-1-yl)phenyl)amino)-9H-purin-9-yl)cyclobutyl)picolinamide] | 0/0/0% | 0/0/0% | 0/0/0% | 10/10/10% | 10/10/10% | 10/10/10% |
| O=C1CC[C@H](N2C(=O)c3ccc(N4CCC(C(=O)N5CCC(CN6CCC(CCNc7ncnc8c7ncn8[C@H]7C[C@@H](NC(=O)Cc8ccccc8)C7)CC6)CC5)CC4)cc3C2=O)C(=O)N1 [Compound 421, N-((1s,3s)-3-(6-((2-(1-((1-(1-(2-(2,6-dioxopiperidin-3-yl)-1,3-dioxoisoindolin-5-yl)piperidin-4-carbonyl)piperidin-4-yl)methyl)piperidin-4-yl)ethyl)amino)-9H-purin-9-yl)cyclobutyl)-2-phenylacetamide] | 0/0/0% | 0/0/0% | 0/0/0% | 60/60/60% | 60/60/60% | 60/60/60% |
| O=C1CC[C@H](N2C(=O)c3ccc(N4CCC(CN5CCC(CCNc6ncnc7c6ncn7C6CC(NC(=O)Cc7ccccc7)C6)CC5)CC4)cc3C2=O)C(=O)N1 (stereo partly drawn) [Compound 423, N-((1s,3s)-3-(6-((2-(1-((1-(2-(2,6-dioxopiperidin-3-yl)-1,3-dioxoisoindolin-5-yl)piperidin-4-yl)methyl)piperidin-4-yl)ethyl)amino)-9H-purin-9-yl)cyclobutyl)-2-phenylacetamide] | 20% | 10% | 10% | 30% | 20% | 20% |
| O=C1CC[C@H](n2nnc3ccc(N4CCC(CN5CCN(c6ccc(Nc7ncnc8c7ncn8[C@H]7C[C@@H](NC(=O)c8cccc(C(F)(F)F)n8)C7)cc6)CC5)CC4)cc3c2=O)C(=O)N1 [Compound 424, N-((1s,3s)-3-(6-((4-(4-((1-(3-(2,6-dioxopiperidin-3-yl)-4-oxo-3,4-dihydrobenzo[d][1,2,3]triazin-6-yl)piperidin-4-yl)methyl)piperazin-1-yl)phenyl)amino)-9H-purin-9-yl)cyclobutyl)-6-(trifluoromethyl)picolinamide] | 0/0/0% | 0/0/0% | 0/0/0% | 10/10/10% | 10/10/10% | 10/10/10% |
| O=C1CC[C@H](N2C(=O)c3cccc(NCC(=O)N4CCC(CN5CCN(c6ccc(Nc7ncnc8c7ncn8[C@H]7C[C@@H](NC(=O)c8cccc(C(F)(F)F)n8)C7)cc6)CC5)CC4)c3C2=O)C(=O)N1 [Compound 425, N-((1s,3s)-3-(6-((4-(4-((1-((2-(2,6-dioxopiperidin-3-yl)-1,3-dioxoisoindolin-4-yl)glycyl)piperidin-4-yl)methyl)piperazin-1-yl)phenyl)amino)-9H-purin-9-yl)cyclobutyl)-6-(trifluoromethyl)picolinamide] | 0/0/0% | 0/0/0% | 0/0/0% | 0/0/0% | 0/0/0% | 0/0/0% |
